Marks after values point to notes of the source that are not given here. Where no end group is shown, it is not given here.
Key:
[1] = test system: VCIP; experiment: VCIP mRNA induction by growth factors and cytokines in monolayer cells; assay type: cell-based, human
Procedure: FIGS. 1A-M show expression analysis and predicted amino acid sequence of VEGF and type I collagen inducible protein (VCIP). FIG. 1A: HUVECs were embedded into three-dimensional type I collagen gel in the presence of 20% adult human serum, 1× ITS and stimulated with VEGF^165 (100 ng/ml). Total RNA was prepared at the indicated time points. Northern blots were hybridized with a fragment of the VCIP (clone-33A) cDNA probe. The transcript size (3.4 kb) is indicated on the right. The numbers at the bottom of the gel represent the fold increase in VCIP mRNA levels, as compared with untreated cells. […] Total RNA was isolated at indicated time points and subjected to VCIP northern blot analysis. […] FIG. 1E: Poly(A)^+ RNA prepared from various human tissues was subjected to VCIP northern blot analysis by hybridization with the clone-33A cDNA probe. FIG. 1F: The blot shown in FIG. 1E was re-hybridized with a GAPDH probe, showing that equal amounts of RNA were loaded across the lanes. FIG. 1G: Detection of VCIP mRNA by RT-PCR (20 cycles): monolayer endothelial cells were treated for 30 min with: (1) untreated, (2) bFGF (20 ng/ml), (3) VEGF^165 (100 ng/ml), (4) PMA (20 ng/ml), (5) bFGF (20 ng/ml)+VEGF (100 ng/ml), (6) bFGF (20 ng/ml)+PMA (20 ng/ml), (7) VEGF (100 ng/ml)+PMA (20 ng/ml) and (8) bFGF (20 ng/ml)+VEGF (100 ng/ml)+PMA (20 ng/ml). FIGS. 1H-J: RT-PCR analysis of uPAR mRNA (FIG. 1H), β-actin mRNA (FIG. 11) and GAPDH mRNA levels (FIG. 1J) were carried out under the same conditions as described in FIG. 1G. All experiments were repeated at least three times, with similar results. FIG. 1K: Inserts from six recombinant_phage clones are shown, and the relative position of clone 33A is indicated. FIG. 1L: The complete predicted amino acid sequence of VCIP. The putative transmembrane segments are underlined. The N-linked glycosylation site is indicated by an asterisk. The lipid phosphatase catalytic domain is indicated by bold letters and underlined, and the RGD motif is boxed. FIG. 1M: The amino acid sequence of human VCIP (top) is aligned with other proteins containing lipid phosphatase-like catalytic motifs.
FIGS. 3A-F show VCIP induction by growth factors and cytokines. Indicated monolayer cells were stimulated with various growth factors and cytokines for 6 h in media M199 containing 10% serum+1× ITS. The concentrations of cytokines used were optimized according to their ability to induce Erk2 phosphorylation in western blot analysis: VEGF^165 (100 ng/ml), EGF (20 ng/ml), bFGF (30 ng/ml), TNF-α (15 ng/ml), PMA (10 ng/ml) and IL-1β (25 ng/ml). Total RNA (20 μg per lane) was subjected to northern blot analysis by hybridization with the indicated probes. The uPAR northern blot was included as a control for the cytokines used. Ethidium bromide-stained gels show equal amounts of RNA used (FIGS. 3C and F). Data shown are representative of those obtained in two or three separate experiments.
VCIP mRNA was most strongly expressed in human heart and placenta, tissues that are highly vascularized (FIG. 1E). Next, expression of VCIP in monolayer endothelial cells treated with bFGF, VEGF and PMA was examined (FIG. 1G). […] This pattern of regulation was identical to that of the human receptor for urokinase plasminogen activator (uPAR) expression (FIG. 1H). β-actin and GAPDH were included as controls and were not regulated under any of these conditions (FIGS. 1I and J).
To examine VCIP expression by other cell types, endothelial, smooth muscle and epithelial cells (A431) were stimulated in monolayer with various growth factors and cytokines for 6 h. Total RNA was then isolated and subjected to northern blot analysis for VCIP and uPAR (FIG. 3).

[2] = target: T1, PAP2b (Homo sapiens, UniProt O14495); conditions: membrane fraction of 293T cells over-expressing PAP2b; cited from earlier work
T1 construct: expressed in transfected cells; host or cells: 293T cells (membrane fraction)
T1 sequence (O14495 1-311): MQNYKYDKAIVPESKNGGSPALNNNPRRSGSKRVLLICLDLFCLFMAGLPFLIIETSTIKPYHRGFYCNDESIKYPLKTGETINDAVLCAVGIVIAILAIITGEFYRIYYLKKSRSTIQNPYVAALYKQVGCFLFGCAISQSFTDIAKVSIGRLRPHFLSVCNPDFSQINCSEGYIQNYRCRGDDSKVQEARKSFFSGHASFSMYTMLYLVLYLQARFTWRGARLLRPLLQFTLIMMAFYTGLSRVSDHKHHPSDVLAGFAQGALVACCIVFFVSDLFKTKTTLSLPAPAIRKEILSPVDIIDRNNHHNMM

[3] = test system: HEK cells stably expressing pLNCX2-VCIP-RGD (WT); experiment: Cell aggregation of HEK cells stably expressing VCIP constructs (Table 1); assay type: cell-based; conditions: for size, speed of formation and number of cell aggregates: continuous presence, antibody 25-50 μl/ml, peptides 10-50 nM; for % cell aggregates: WT cells, 48 h, mean ± SD
Procedure: WT cells were also incubated with several peptides modeled after the VCIP-RGD region. When WT cells were cultured in the continuous presence of an anti-VCIP-RGD antibody (25-50 μl/ml) and NYRCRGDDSK (SEQ ID NO:20) (10-50 nM), the size, the speed of formation and the number of such cell aggregates were reduced (Table 1).

[4] = test system: endothelial cells; experiment: Adhesion of endothelial cells to wells coated with GST fusion proteins; assay type: cell-based, human; conditions: pretreatment 20 μg/ml for 1 h and continued exposure
Procedure: FIG. 10A: Affinity purified GST-fusion proteins were resolved on SDS±PAGE and stained with Coomassie Blue. FIG. 10B: Integrins were immobilized onto 96-well plates, and various GST-fusion proteins (ligands) were allowed to bind. Bound ligands were incubated with anti-GST antibodies, appropriate substrate added and the color intensity measured. OD values <0.05 were considered to be background binding. Data are expressed as mean±SD (n=4). FIG. 10C: Dose-dependent binding of αvβ3 integrin with recombinant GST-VCIP-RGD. FIGS. 10D-F: Representative photomicrographs of adhesion and spreading of endothelial cells replated onto dishes coated with either fibronectin (FIG. 9D), vitronectin (FIG. 9E) or GST-VCIP-RGD (FIG. 9F). […] Attached cells were stained, washed and absorbances of eluted dyes measured. […] Attached cells were stained, washed and absorbances of eluted dyes determined. […] Data are expressed as mean±S.D.; diamond, P<0.01; asterisk, P<0.001. […]
For adhesion blocking assays, endothelial cells were detached, washed with PBS and resuspended in M199 media containing 1 mM CaCl2 and 1 mM MgCl2 in the absence of serum or growth factors. […] Absorbances were measured at 540 nm.
Next, the capacity of VCIP-RGD to bind endothelial cell integrins was evaluated by determining the effect of GST-VCIP fusion proteins on cell adhesion and spreading.

[5] = test system: endothelial cells; experiment: Adhesion blocking assay on GST-VCIP-RGD-coated dishes; assay type: cell-based, human
[6] = A431 epidermoid carcinoma cells, 6 h, northern blot
[7] = monolayer endothelial cells, RT-PCR, 30 min

TNF-α
induction of VCIP expression [1, 6]: had no effect

CC(C)NCC(O)COc1cccc2ccccc12 (centres unmarked) [propranolol]
effect on phosphatase activity against phosphatidic acid [2]: blocked

NYRCRGEDSK (CHAIN a peptide containing a mutated RGD sequence)
size, speed of formation and number of cell aggregates [3]: no reduction in cell aggregation

CCN1C(=O)C=CC1=O [N-ethylmaleimide]
effect on phosphatase activity against phosphatidic acid [2]: insensitive

NYRCRGDDSK (CHAIN a peptide containing RGD sequence)
size, speed of formation and number of cell aggregates [3]: reduced
% cell aggregates ([3]; substance 10 nM): 67 ± 15.7%
% cell aggregates ([3]; substance 30 nM): 46 ± 13.3%
% cell aggregates ([3]; substance 50 nM): 28 ± 10.5^a %

C[C@@H]1C[C@@H]([C@H](O)CC2CC(=O)NC(=O)C2)C(=O)[C@@H](C)C1 [cycloheximide, reference compound]
total number of attached cells [4]: did not decrease the total number of attached cells

bFGF: Basic Fibroblast growth factor
induction of VCIP expression [1, 6]: had no effect
induction of VCIP expression [1, 7]: equally able to induce expression of VCIP

NYRCRADDSK (CHAIN a peptide containing a mutated RGD sequence)
size, speed of formation and number of cell aggregates [3]: no reduction in cell aggregation
% cell aggregates ([3]; substance 10 nM): 92 ± 5.7%
% cell aggregates ([3]; substance 30 nM): 89 ± 7.5%
% cell aggregates ([3]; substance 50 nM): 90 ± 7.2^a %

CCCCCCCCCCCCC/C=C/[C@@H](O)[C@@H](N)CO [sphingosine]
effect on phosphatase activity against phosphatidic acid [2]: blocked

O=C(O)CN(CCN(CC(=O)O)CC(=O)O)CC(=O)O [EDTA, reference compound]
detachment of endothelial cells adhered to VCIP ([5]; 2.5 mM (pH 7.4) for 5 min): caused the cells to detach from tissue culture dishes

NYRCRGDDSKVQE (also: acetylated) [acetylated NYRCRGDDSKVQE (VCIP-RGD)]
detachment of attached cells from VCIP-RGD-coated wells ([5]; 5 nM): eventually completely detached from the wells
time until attached cells rounded up ([5]; 5 nM, cells plated on VCIP-RGD-coated wells): ≤ 5 min

CCCCCCCCCCCCCC(=O)O[C@@H]1[C@@H](C)[C@@]2(O)[C@@H](C=C(CO)C[C@]3(O)C(=O)C(C)=C[C@@H]23)[C@@H]2C(C)(C)[C@]12OC(C)=O [PMA]
induction of VCIP expression [1, 6]: strongly induced
induction of VCIP expression ([1]; AoSMC, 6 h, northern blot): did not
induction of VCIP expression ([1]; CASMCs, 6 h, northern blot): Neither PMA nor VEGF^165 induced expression of VCIP
induction of VCIP expression [1, 7]: equally able to induce expression of VCIP

From patent publication US20050002904A1, “Uses of vascular endothelial growth factor and type I collagen inducible protein (VCIP)” (priority 2003, published 2005)
